Here are results for one molecule from US6447801B1, “Anti-parasitic action of N,N-diethyl-m-toluamide (deet) and formulations that prolong its activity in the skin” (priority 1997, dated 2002).

Data set [1] can be described thus: Absorption through skin: DEET level in plasma by HPLC. Format: in vivo, mice. As to conditions: 200 μl of 60% on abdominal skin. The protocol:
Briefly, the Bond-Elute cartridges were activated by washing with two ml of HPLC grade acetonitrile (Sigma chemicals Co., St. Louis, Mo.) followed by two ml of deionized, degassed filtered water. A low vacuum (<0.5 in Hg) was applied for the wash using a Vac-Elute manifold (Varian Analytical Supplies Co.). […] Hg). The cartridge was then washed with three mls. of acetonitrile-ammoniumacetate (pH 4.5, 0.03 M, at 40:60 V:V) under low vacuum (<0.5 in. Hg). The eluant was then injected directly onto columns (ODS-1, 250×4.6 mm, Alltech Co., Deerfield, Ill.) for HPLC analysis (Waters, Division of Millipore, Milford, Mass.). Chromatographic conditions used for HPLC analysis is as follows: Mobil phase: acetonitrile-ammoniumacetate (pH 4.5, 0.03M, at 36:64 v:v), flow rate 1.0 ml/min, UV detection at 220 nm. Sensitivity was set at 0.01AUFS. […].

Data set [2] relates to Amblyoma americanum. The experiment in a line: Tick attachment to rabbit ear, Amblyoma americanum. Format: in vivo. As to the method: To determine the effect of DEET on tick attachment and feeding we used two species of ticks Amblyoma americanum and Dermacetor variabilis purchased from University of Oklahoma. Ticks were allowed to feed on the ears of male New Zealand white rabbits purchased from Charles River. For feeding, five ticks were introduced into a 60 μm sieve cell well (Fisher Scientific) which was attached to the ear of the rabbit with nail glue. Ticks were observed every 30 minutes for the first eight hours to assess skin attachment and feeding behavior. Tick attachment was defined as the minimum time required for 3 of the 5 ticks to attach to the ear. […] The observation was continued for 72 hours for both species of ticks. Separate rabbits were used for each species and for each treatment. […] All the ticks in this study were active until attachment.
In this series of experiments, the protective effect(s) of different concentrations of DEET and Lipodeet on the attachment of nymphs and adults of two species of ticks, A. americanum and D. variabilis, to the rabbit ear was evaluated. Experiments were set up wherein different concentrations (20% or 40% of DEET or Lipodeet were applied (0.2 ml of the samples to 10 cm^2 surface area), onto the dorsal side of the ear lobes of a rabbit. After allowing the preparation to dry for 30 min., sieve cups (Fisher Scientific, 1″ inner diameter) were then attached to the ear lobes using nail glue. Ten nymphs or five adult ticks were then introduced into the sieve cups every 24 hrs through a small slit made on the sieve membrane. Attachment of ticks to the skin was monitored every 24 hrs. for up to 72 hrs. after introduction of the ticks.
More than 60% of ticks used in our experiments were dead after contact with Lipodeet. Although a well-aerated sieve cup was used (1″ inner diameter), we initially thought that the tick mortality may be due to possible DEET vapor trapped within the sieve cup. Therefore, we designed experiments where one half of the surface area of skin within the sieve cup was treated with 40% Lipodeet and the other half was left untreated. Five adults ticks of A. americanum were then introduced into the sieve cups every 24 hrs. After 72 hrs., the sieve cups were removed.

The subject of data set [3] is cercariae of S. mansoni. The experiment in a line: Effect of DEET on the morphology of cercariae (transmission electron microscopy). It counts as cell-based, Schistosoma mansoni. As to the method:
Effect of DEET on cercarial morphology was evaluated by transmission electron microscopic studies. In these experiments, approximately 300-500 cercariae of S. mansoni suspended in 100 μl of PBS were placed in each well of a 96 well plate coated with varying concentrations of DEET (ranging from 7.5%-40%) or isopropanol (control) as described above. Samples were collected at 5, 10, 20, 30 and 240 minutes after exposure to DEET and processed for transmission electron microscopy as described in Salafsky et al., Exper. Parasitol., 67:116-127 (1988). Briefly, cercariae collected from each tube were transferred to fresh tubes containing PBS plus 10% fetal bovine serum (Sigma Chemical Co.) and concentrated into a pellet by centrifugation at 500 rpm (300 g) for 5 minutes. The pellet was then fixed overnight at 4° C. in a fixative containing 3% gluteraldehyde, and 1% formaldehyde in a 0.1 M phosphate buffer (pH 7.2). After one hour post fixation in 1% osmium tetroxide the pellet were dehydrated through a graded acetone series and embedded in epon resin. Sections were examined in a Hitachi H-500 transmission electron microscope after staining with uranyl acetate and lead citrate.

Data set [4] in a line: Disposition of 14C-DEET and 14C-Lipodeet after skin application (skin, blood, urine, bedding radioactivity). As to the method:
In this series of experiments, 11.472 mg of ^14C-DEET of ^14C-Lipodeet (in 100 μl) was applied to 5 cm^2 area of the mice abdominal skin. At different time points (15 min, 30 min, 60 min, 2 hrs., 4 hrs., 24 hrs., 48 hrs. and 72 hrs.) after application, the whole area of skin where the lipodeet had been applied was collected, underlying tissue removed and the radioactivity measured in a Beckman β-counter. Samples of blood and urine were also collected at these time points from each mouse to measure the radioactivity (n=10 for each time point). […] In this study, we made observations only up to 72 hrs. […] There are two possibilities, (1) substantial quantities of both DEET and Lipodeet are absorbed systemically through the skin within 24 hrs., or (2) both the chemicals are lost in the bedding due to direct contact of the applied area to the bedding materials. The first hypothesis was tested by measuring ^14C levels in the blood and urine in these animals.

Take `CCN(CC)C(=O)c1cccc(C)c1` [DEET, N,N-diethyl-m-toluamide]: the “DEET present in the plasma” value in data set [1] (15 min) is 11.6 mg; in data set [1] (30 min) it was 5.3 mg; in data set [1] (60 min), approximately 0.182 mg. Besides, the entries for the “DEET present in the plasma, percent” value in data set [1] (15 min), in data set [1] (30 min) and in data set [1] (60 min) were 9.7%, 4.4% and 0.15%, respectively. The “initial time with no tick attachment” value in data set [2] (10% DEET on rabbit ear, normal rabbits 20 hours) came out at 22.0 h. Besides, the adult ticks attached in data set [2] (20%, adults, by 48 hrs (2/10)) was determined as 20%; in data set [2] (20%, adults, by 72 hrs (6/15)), 40%; in data set [2] (40%, adults, at 48 hrs (1/10)) it was 10%; in data set [2] (40%, adults, by 72 hrs (3/15)), 20%. Moreover, the “prevention of adult tick attachment” value in data set [2] (20%, adults, up to 24 hrs) was “prevented tick attachment”. In addition, the “reduction of attachment of A. americanum nymphs to rabbit ear” value in data set [2] (20%, from 24 to 72 hrs, untreated 40% attached) is given as 50%. The “site of tick attachment, half of the skin in the sieve cup treated” value in data set [2] (40%, adult A. americanum, after 72 hrs) is “ticks were seen attached to both treated and untreated surfaces”. In data set [2] (40%, nymphs, by 48 hrs), the “ticks attached to the skin” value is 20%. Further, the “prevention of tick attachment” value in data set [2] (40%, nymphs, up to 24 hrs) was “completely prevented tick attachment to the skin”. Besides, in data set [3] (7.5% DEET, evident as early as five minutes post-exposure), the “ultrastructural changes of cercariae” value was “ultrastructural changes of two types were observed”. Besides, the lysis of cercariae entry in data set [3] (240 min after exposure to DEET) is recorded as “Frank lysis of cercariae”. Also, in data set [4] (11.472 mg on 5 cm^2, by 24 hrs), the “amount in the superficial layers of the skin” value was “nearly all of the DEET applied to the skin has been cleared from the superficial layers”. Also, in data set [4] (during 4 to 24 hrs after application), the “lost from the skin” value came to 100%.
